In patent publication US10280190B2, “Nicotinic acid riboside or nicotinamide riboside compositions, reduced derivatives thereof, and the use thereof to enhance skin permeation in treating skin conditions” (ChromaDex Inc., priority 2015, dated 2019):

Test system: A431 human epidermoid cells
Assay: Oxidative damage protection assay (Example 3), compound with 1 mM H2O2, alamar blue readout
Type: cell-based
Procedure: The cells were trypsinized with 0.25% trypsin EDTA solution for 2-3 minutes until the cells were dislodged. The cells were sub-cultured in a ratio of 1:3 for further growth and scale-up for the assay. The cells were trypsinized and counted to a density of 5,000 or 15,000 cells and seeded in 100 μL media per well, in 96-well clear bottom black plates. The outer wells at the periphery of the plates were left unneeded and were instead filled with media to reduce the edge effect during incubation. […] Each concentration was tested in 6 replicates.
Detection method used: Cell Titer blue (Promega, Cat# G8080).

## CC(=O)OC[C@H]1O[C@@H](N2C=CCC(C(N)=O)=C2)[C@H](OC(C)=O)[C@@H]1OC(C)=O [NRH triacetate (2), 1-(2′,3′,5′-triacetyl-beta-D-ribofuranosyl)-1,4-dihydronicotinamide]
Trial A, FIG. 1, 1 mM H2O2 for 20 hours, all doses (0.1, 0.3, 1 mM)
  mitigating oxidative damage to human skin cells: capable of mitigating oxidative damage
Trial A, FIG. 1, 1 mM H2O2 for 20 hours, dose-dependent, highest over 0.1-1 mM
  cytoprotection compared to positive controls: up to 88%
Trial B, FIG. 2, 1 mM H2O2, compound at 1 mM
  cytoprotection compared to positive controls: 94%
Composite of Trials A and B, FIG. 3
  protection against oxidative damage in skin cells: can protect against oxidative damage
